According to patent US10434083B2, “Transmammary delivery of cyclooxygenase-2 inhibitors for analgesia in neonates” (Iowa State University Research Foundation, Inc., priority 2018, dated 2019):

Experiments:
[1] = Plasma firocoxib in nursing piglets after transmammary delivery (Example 1); type: in vivo, swine; details: piglets nursing sow given 1.5 mg/kg IM; from 2 hours post-exposure to end of study (48 h)
Description: Blood (sodium heparin tubes) was collected from the sow via jugular venipuncture at the following time points after drug administration via injection to the sow: 0, 1, 2, 3, 4, 6, 8, 10, 12, 24, 36 and 48 hours. The piglets had blood collected via jugular venipuncture at the following timepoints following sow drug administration via injection:
Piglets 1-3 was bled at times 0, 3, 8 and 24 hours
Piglets 4-6 was bled at times 1, 4, 10 and 36 hours
Piglets 7-9 was bled at times 2, 6, 12 and 48 hours.
Approximately 10 mL of blood was collected from the sow at each time point, and approximately 5 mL was collected from each piglet at each time point. Following blood collection at the 48 hour time point, the sow and piglets was euthanized and disposed of per study site procedures. […]
Plasma concentrations of firocoxib were measured with high-pressure liquid chromatography-tandem mass spectrometry (Shimadzu Prominence, Shimadzu Scientific Instruments, Columbia, Md., USA). […]
The standard curve of firocoxib concentration determined using porcine plasma was linear from 0.020 to 5.0 μg/mL and was accepted when the correlation coefficient exceeded 0.99 and measured values were within 15% of the actual values. The lower limit of quantification, defined as the lowest concentration on a linear standard curve with predicted concentrations within 15% of the actual concentration, was 0.020 μg/mL.

[2] = Piglet average daily gain (ADG) from processing to weaning; type: in vivo, swine; details: piglets; for Average Daily Gain (ADG) Mean Difference: least squares means
Description: On day 21 post-drug injection in the sow, the body weight of each sow and piglet was recorded before weaning to calculate average daily weight gain.
Plasma cortisol concentrations and ADG were analyzed using a nonlinear mixed-effects analysis incorporating both fixed effects and random effects (PROC GLMMIX; SAS university edition v9.04.01, SAS Institute, Cary, N.C.). The population cortisol concentrations best fit a lognormal model. Time, treatment and their interaction were designated as fixed effects in the model with piglet nested in sow designated as a random effect. The effect of gender across treatments was examined using ANOVA to confirm that data from female piglets could be pooled to serve as a procedural control. Sow parity was also included as a covariate in the model. Where there was evidence of a treatment-by-time interaction (P<0.1), simple effect comparisons of LS means were conducted using the Tukey-Kramer adjustment for multiple comparisons. ADG outcomes best fit a Gaussian distribution. The effect of gender across treatments was also examined by ANOVA to clarify the effect of drug exposure from the effect of processing. For both outcomes, statistical significance was set a priori at P<0.05.
Eight piglets died between processing and weaning. Average daily gain in body weight (ADG) of the surviving piglets over the 21 d from processing to weaning was calculated by subtracting the body weight at processing from the body weight at weaning and dividing the result by the days from processing to weaning (FIG. 12 and FIG. 13). […] Specifically, ADG increased with the increasing doses of firocoxib administered to the lactating sows via injection.

[3] = Necropsy and histopathology examination of lactating sows at 21 d; details: for Kidney: Focal interstitial nephritis (number of sows) / Kidney: Mild tubular ectasia (number of sows) / Kidney: Within normal limits (number of sows) / Liver: Within normal limits (number of sows) / Small Intestine: Within normal limits (number of sows) / Stomach: Within normal limits (number of sows): 21 d
Description: Thereafter, sows and piglets in all groups were humanely euthanized and examined for macroscopic signs of NSAID toxicity. Necropsies were performed on all animals to inspect for macroscopic signs of NSAID toxicity. Samples of kidney, liver, small intestine and stomach were sectioned into 0.5-1 cm slices and placed in plastic jars containing 10% buffered formalin in a 10:1 formalin:tissue ratio for histopathology examination.
Formalin-fixed sections of kidney, liver, small intestine and stomach from sows and 3 piglets/litter were trimmed and positioned in cassettes loaded into an automated tissue processor (Sakura VIP 5, Sakura Finetek, Torrance, Calif.) for overnight paraffin infiltration. Processed tissues in cassettes were then placed in a paraffin bath (Sakura Tissue-Tek TEC 5, Sakura Finetek, Torrance, Calif.) after which they were removed from the cassette and oriented in molds. […] Tissue sections were cut at 4 microns from the cooled blocks. Paraffin ribbons with tissue were then laid out on a water bath and the floating tissue sections were collected onto microscope slides. The unstained tissue sections were then mounted on the slide and dried at 60° C. for 20 minutes. Finally, the tissue was deparaffinized and rehydrated for staining by transfer through xylene and a series of decreasing concentrations of alcohol to hematoxylin on an automated stainer (Sakura Tissue-Tek Prisma, Sakura Finetek, Torrance, Calif.). After a tap water rinse, the tissue on the slide was counterstained with eosin, dehydrated in an alcohol series, cleared in xylene and cover slipped (Sakura Tissue-Tek Glas g2) prior to histological examination by a veterinary diagnostician with experience in the histological examination of swine tissues.

CC1(C)OC(=O)C(OCC2CC2)=C1c1ccc(S(C)(=O)=O)cc1 [firocoxib]
plasma drug concentrations in piglets [1]: above 10 ng/mL | average daily gain, dose dependence ([2]; 21 d after processing, sow doses 0.5-2.0 mg/kg IM): dose-dependent increase in average daily gain | Average Daily Gain (ADG) Mean Difference ([2]; sow dose 0.5 mg/kg vs 1.0 mg/kg): 2.56 g | Average Daily Gain (ADG) Mean Difference ([2]; sow dose 0.5 mg/kg vs 1.5 mg/kg): -17.98 g | Average Daily Gain (ADG) Mean Difference ([2]; sow dose 0.5 mg/kg vs 2.0 mg/kg): -39.01 g | Average Daily Gain (ADG) Mean Difference ([2]; sow dose 1.0 mg/kg vs 1.5 mg/kg): -20.54 g | Average Daily Gain (ADG) Mean Difference ([2]; sow dose 1.0 mg/kg vs 2.0 mg/kg): -41.57 g | Average Daily Gain (ADG) Mean Difference ([2]; sow dose 1.5 mg/kg vs 2.0 mg/kg): -21.03 g | weight gain (ADG) over 21 d from processing to weaning ([2]; sow dose 2.0 mg/kg vs 0.5 mg/kg (P=0.0076) or 1.0 mg/kg (P=0.0047)): gained more weight | macroscopic lesions on post-mortem examination ([3]; kidney, liver, stomach and small intestines, sows and piglets): No macroscopic lesions were evident | Kidney: Focal interstitial nephritis (number of sows) ([3]; sows, 0.5 mg/kg IM): 2 | Kidney: Mild tubular ectasia (number of sows) ([3]; sows, 0.5 mg/kg IM): 1 | Kidney: Within normal limits (number of sows) ([3]; sows, 0.5 mg/kg IM): 1 | Liver: Within normal limits (number of sows) ([3]; sows, 0.5 mg/kg IM): 4 | Small Intestine: Within normal limits (number of sows) ([3]; sows, 0.5 mg/kg IM): 4 | Stomach: Within normal limits (number of sows) ([3]; sows, 0.5 mg/kg IM): 4 | Kidney: Focal interstitial nephritis (number of sows) ([3]; sows, 1.0 mg/kg IM): 1 | Kidney: Mild tubular ectasia (number of sows) ([3]; sows, 1.0 mg/kg IM): 2 | Kidney: Within normal limits (number of sows) ([3]; sows, 1.0 mg/kg IM): 1 | Liver: Within normal limits (number of sows) ([3]; sows, 1.0 mg/kg IM): 4 | Small Intestine: Within normal limits (number of sows) ([3]; sows, 1.0 mg/kg IM): 4 | Stomach: Within normal limits (number of sows) ([3]; sows, 1.0 mg/kg IM): 4 | Kidney: Focal interstitial nephritis (number of sows) ([3]; sows, 1.5 mg/kg IM): 0 | Kidney: Mild tubular ectasia (number of sows) ([3]; sows, 1.5 mg/kg IM): 1 | Kidney: Within normal limits (number of sows) ([3]; sows, 1.5 mg/kg IM): 3 | Liver: Within normal limits (number of sows) ([3]; sows, 1.5 mg/kg IM): 4 | Small Intestine: Within normal limits (number of sows) ([3]; sows, 1.5 mg/kg IM): 4 | Stomach: Within normal limits (number of sows) ([3]; sows, 1.5 mg/kg IM): 4 | Kidney: Focal interstitial nephritis (number of sows) ([3]; sows, 2.0 mg/kg IM): 2 | Kidney: Mild tubular ectasia (number of sows) ([3]; sows, 2.0 mg/kg IM): 1 | Kidney: Within normal limits (number of sows) ([3]; sows, 2.0 mg/kg IM): 1 | Liver: Within normal limits (number of sows) ([3]; sows, 2.0 mg/kg IM): 4 | Small Intestine: Within normal limits (number of sows) ([3]; sows, 2.0 mg/kg IM): 4 | Stomach: Within normal limits (number of sows) ([3]; sows, 2.0 mg/kg IM): 4 | kidneys with ectatic tubules (number) ([3]; sows, all treatment groups): 5
